pEC50, pIC50: −log10 of the molar value. Calls of active or inactive are those of the source. The calls are words filed in the database; no cut-off is given here. Peptide text beside a SMILES is read from it. * marks the point of attachment. Isovaleryl = CC(C)CC(=O)*; Propionyl = CCC(=O)*; Bz = O=C(c1ccccc1)*
Legend:
Nociceptin receptor [1] = target: T1, Nociceptin receptor (Homo sapiens, UniProt P41146); experiment: Displacement of [3H]nociceptin from human ORL1-Galpha fusion receptor in COS7 cells; format: cell-based, COS-7
Nociceptin receptor [2] = target: T1, Nociceptin receptor; experiment: Activity at human ORL1-Galpha fusion receptor in COS7 cells assessed as stimulation of [35S]GTP-gamma-S binding; format: functional, cell-based, COS-7
[3] = target: Nociceptin receptor (Mus musculus) (UniProt P35377); experiment: Antagonist activity at ORL1[…] receptor in ICR mouse vas deferens assessed as inhibition of electrically-stimulated muscle contraction; format: functional, tissue-based
[4] = target: Nociceptin receptor (Mus musculus) (UniProt P35377); experiment: Antagonist activity at ORL1[…] receptor in ICR mouse vas deferens assessed as inhibition of electrically-stimulated muscle contraction at 10 uM; format: functional, tissue-based; design: scale not given: the % may be the effect or the level left
[5] = target: Nociceptin receptor (Mus musculus) (UniProt P35377); experiment: Agonist activity at ORL1[…] receptor in ICR mouse vas deferens assessed as inhibition of electrically-stimulated muscle contraction at 10 uM; format: functional, tissue-based; design: scale not given: the % may be the effect or the level left

Chain of Nociceptin receptor (Mus musculus) (P35377 whole entry): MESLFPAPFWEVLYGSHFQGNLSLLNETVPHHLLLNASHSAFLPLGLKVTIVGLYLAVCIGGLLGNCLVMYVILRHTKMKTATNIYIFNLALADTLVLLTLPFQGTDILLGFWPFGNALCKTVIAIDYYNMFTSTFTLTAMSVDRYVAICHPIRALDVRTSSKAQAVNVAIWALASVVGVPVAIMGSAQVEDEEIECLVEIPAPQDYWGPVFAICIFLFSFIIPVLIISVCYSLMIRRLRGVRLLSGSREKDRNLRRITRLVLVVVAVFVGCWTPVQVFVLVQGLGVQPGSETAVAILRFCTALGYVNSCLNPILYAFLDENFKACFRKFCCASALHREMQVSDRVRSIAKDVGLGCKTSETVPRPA
T1 sequence (P41146 whole entry, the tested form may be a part): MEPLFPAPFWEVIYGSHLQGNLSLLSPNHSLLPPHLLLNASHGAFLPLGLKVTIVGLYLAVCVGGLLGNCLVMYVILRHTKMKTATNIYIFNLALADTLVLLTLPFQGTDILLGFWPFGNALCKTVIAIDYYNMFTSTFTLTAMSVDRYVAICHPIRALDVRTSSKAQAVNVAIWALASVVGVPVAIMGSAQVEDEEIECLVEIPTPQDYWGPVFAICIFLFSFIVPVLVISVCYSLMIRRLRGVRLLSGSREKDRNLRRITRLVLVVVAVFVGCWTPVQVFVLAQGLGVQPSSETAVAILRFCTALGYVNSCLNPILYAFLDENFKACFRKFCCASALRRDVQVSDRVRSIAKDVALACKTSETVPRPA

| Compound | pIC50 (Nociceptin receptor [1]) | pEC50 (Nociceptin receptor [2]) | other results |
| --- | --- | --- | --- |
| CCC(C)C(=O)N[C@@H](CCCNC(=N)N)C(=O)N[C@@H](Cc1ccc(O)cc1)C(=O)N[C@@H](Cc1ccc(O)cc1)C(=O)N[C@@H](CCCNC(=N)N)C(=O)N[C@H](C(=O)N[C@@H](CCCCN)C(N)=O)[C@@H](C)CC (stereo partly drawn) | 7.67 | 7.28 | – |
| CC(C)C[C@H](NC(=O)[C@H](CCCCN)NC(=O)[C@H](CCCNC(=N)N)NC(=O)[C@H](C)NC(=O)[C@H](CO)NC(=O)[C@H](CCCCN)NC(=O)[C@H](CCCNC(=N)N)NC(=O)[C@H](C)NC(=O)CNC(=O)[C@@H](NC(=O)[C@H](Cc1ccccc1)NC(=O)CNC(=O)CNC(=O)[C@@H](N)Cc1ccccc1)[C@@H](C)O)C(=O)N[C@@H](C)C(=O)N[C@@H](CC(N)=O)C(=O)N[C@@H](CCC(N)=O)C(=O)O | – | – | ED50 [3]: 19.3 nM |
| CC[C@H](C)[C@H](NC(=O)[C@H](CCCN=C(N)N)NC(=O)[C@H](Cc1ccc(O)cc1)NC(=O)[C@H](Cc1ccc(O)cc1)NC(=O)[C@H](CCCN=C(N)N)NC(=O)CC(C)(C)C)C(=O)N[C@@H](CCCCN)C(N)=O | 7.77 | 7.33 | – |
| CC[C@H](C)[C@H](NC(=O)[C@H](CCCN=C(N)N)NC(=O)[C@H](Cc1ccc(O)cc1)NC(=O)[C@H](Cc1ccc(O)cc1)NC(=O)[C@H](CCCN=C(N)N)NC=O)C(=O)N[C@@H](CCCCN)C(N)=O | 9.18 | 7.63 | – |
| CCCCC(=O)N[C@@H](CCCN=C(N)N)C(=O)N[C@@H](Cc1ccc(O)cc1)C(=O)N[C@@H](Cc1ccc(O)cc1)C(=O)N[C@@H](CCCN=C(N)N)C(=O)N[C@H](C(=O)N[C@@H](CCCCN)C(N)=O)[C@@H](C)CC | 8.25 | – | – |
| CCCCCC(=O)N[C@@H](CCCNC(=N)N)C(=O)N[C@@H](Cc1ccc(O)cc1)C(=O)N[C@@H](Cc1ccc(O)cc1)C(=O)N[C@@H](CCCNC(=N)N)C(=O)N[C@H](C(=O)N[C@@H](CCCCN)C(N)=O)[C@@H](C)CC | 7.66 | – | – |
| CC[C@H](C)[C@H](NC(=O)[C@H](CCCNC(=N)N)NC(=O)[C@H](Cc1ccc(O)cc1)NC(=O)[C@H](Cc1ccc(O)cc1)NC(=O)[C@H](CCCNC(=N)N)NC(=O)c1ccccc1)C(=O)N[C@@H](CCCCN)C(N)=O | 7.83 | 7.74 | – |
| CC[C@H](C)[C@H](NC(=O)[C@H](CCCN=C(N)N)NC(=O)[C@H](Cc1ccc(O)cc1)NC(=O)[C@H](Cc1ccc(O)cc1)NC(=O)[C@H](CCCN=C(N)N)NC(=O)C(C)(C)CC)C(=O)N[C@@H](CCCCN)C(N)=O | 7.34 | 7.75 | – |
| CCCC(=O)N[C@@H](CCCNC(=N)N)C(=O)N[C@@H](Cc1ccc(O)cc1)C(=O)N[C@@H](Cc1ccc(O)cc1)C(=O)N[C@@H](CCCNC(=N)N)C(=O)N[C@H](C(=O)N[C@@H](CCCCN)C(N)=O)[C@@H](C)CC | 8.73 | 7.49 | – |
| CCCC(C)C(=O)N[C@@H](CCCNC(=N)N)C(=O)N[C@@H](Cc1ccc(O)cc1)C(=O)N[C@@H](Cc1ccc(O)cc1)C(=O)N[C@@H](CCCNC(=N)N)C(=O)N[C@H](C(=O)N[C@@H](CCCCN)C(N)=O)[C@@H](C)CC (stereo partly drawn) | 7.33 | 7.62 | – |
| CCC(CC)C(=O)N[C@@H](CCCN=C(N)N)C(=O)N[C@@H](Cc1ccc(O)cc1)C(=O)N[C@@H](Cc1ccc(O)cc1)C(=O)N[C@@H](CCCN=C(N)N)C(=O)N[C@H](C(=O)N[C@@H](CCCCN)C(N)=O)[C@@H](C)CC | 7.03 | – | – |
| CC[C@H](C)[C@H](NC(=O)[C@H](CCCNC(=N)N)NC(=O)[C@H](Cc1ccc(O)cc1)NC(=O)[C@H](Cc1ccc(O)cc1)NC(=O)[C@H](CCCNC(=N)N)NC(=O)C(C)(C)C)C(=O)N[C@@H](CCCCN)C(N)=O | 7.83 | 7.01 | – |
| CCC(=O)N[C@@H](CCCNC(=N)N)C(=O)N[C@@H](Cc1ccccc1)C(=O)N[C@@H](Cc1ccc(O)cc1)C(=O)N[C@@H](CCCNC(=N)N)C(=O)N[C@H](C(=O)N[C@@H](CCCCN)C(N)=O)[C@@H](C)CC (Propionyl-RFYRIK-NH2) | – | – | Activity [4]: 90% |
| CCC(=O)N[C@@H](CCCNC(=N)N)C(=O)N[C@@H](Cc1ccc(O)cc1)C(=O)N[C@@H](Cc1ccc(O)cc1)C(=O)N[C@@H](CCCNC(=N)N)C(=O)N[C@H](C(=O)N[C@@H](CCCCN)C(N)=O)[C@@H](C)CC | 8.77 | 7.56 | – |
| CC[C@H](C)[C@H](NC(=O)[C@H](CCCNC(=N)N)NC(=O)[C@H](Cc1ccc(O)cc1)NC(=O)[C@H](Cc1ccccc1)NC(=O)[C@@H](N)CCCNC(=N)N)C(=O)N[C@@H](CCCCN)C(N)=O | – | – | Activity [3]: inactive |
| CC[C@H](C)[C@H](NC(=O)[C@H](CCCN=C(N)N)NC(=O)[C@H](Cc1ccc(O)cc1)NC(=O)[C@H](Cc1ccc(O)cc1)NC(=O)[C@H](CCCN=C(N)N)NC(=O)C12CC3CC(CC(C3)C1)C2)C(=O)N[C@@H](CCCCN)C(N)=O | 8.47 | 7.72 | – |
| CC[C@H](C)[C@H](NC(=O)[C@H](CCCNC(=N)N)NC(=O)[C@H](Cc1ccc(O)cc1)NC(=O)[C@H](Cc1ccc(O)cc1)NC(=O)[C@H](CCCNC(=N)N)NC(=O)CC(C)C)C(=O)N[C@@H](CCCCN)C(N)=O | 8.13 | – | – |
| CC[C@H](C)[C@H](NC(=O)[C@H](CCCN=C(N)N)NC(=O)[C@H](Cc1ccc(O)cc1)NC(=O)[C@H](Cc1ccc(O)cc1)NC(=O)[C@H](CCCN=C(N)N)NC(C)=O)C(=O)N[C@@H](CCCCN)C(N)=O | – | – | Activity [5]: 40% |
| CC[C@H](C)[C@H](NC(=O)[C@H](CCCNC(=N)N)NC(=O)[C@H](Cc1ccc(O)cc1)NC(=O)[C@H](Cc1ccc(O)cc1)NC(=O)[C@@H](N)CCCNC(=N)N)C(=O)N[C@@H](CCCCN)C(N)=O | 6.66 | – | – |
| CC[C@H](C)[C@H](NC(=O)[C@H](CCCNC(=N)N)NC(=O)[C@H](Cc1ccc(O)cc1)NC(=O)[C@H](Cc1ccc(O)cc1)NC(=O)[C@H](CCCNC(=N)N)NC(=O)C(C)C)C(=O)N[C@@H](CCCCN)C(N)=O | 8.55 | 7.35 | – |
| CC[C@H](C)[C@H](NC(=O)[C@H](CCCNC(=N)N)NC(=O)[C@H](Cc1ccc(O)cc1)NC(=O)[C@H](Cc1ccccc1)NC(=O)[C@H](CCCNC(=N)N)NC(=O)c1ccccc1)C(=O)N[C@@H](CCCCN)C(N)=O (Bz-RFYRIK-NH2) | – | – | Activity [4]: 90% |
| CC[C@H](C)[C@H](NC(=O)[C@H](CCCNC(=N)N)NC(=O)[C@H](Cc1ccc(O)cc1)NC(=O)[C@H](Cc1ccccc1)NC(=O)[C@H](CCCNC(=N)N)NC(=O)CC(C)C)C(=O)N[C@@H](CCCCN)C(N)=O (Isovaleryl-RFYRIK-NH2) | – | – | Activity [3]: Dose-dependent effect |
